50 compounds from patent US8415469B2, “Compounds and methods for kinase modulation, and indications therefor” (Plexxikon Inc., priority 2005, dated 2013) can be followed below.

The structures appear in SMILES notation.

Format in all cases: biochemical
The target in one assay is T1, Fms (Homo sapiens, UniProt P07333).
T1 construct: purchased Upstate Biotechnology
The assay can be described thus: AlphaScreen kinase assay, Fms. To be noted: read-out: IC50, activity toward kinase Fms. For orientation: Bead proximity is the source of the signal in Alpha formats.

The target in the next assay is T2, FGFR1 (Homo sapiens, UniProt P11362, C488A/C584S).
T2 construct: P1351.pET N6 BI-PTP FGFR A458-E765-X C488A, C584S; made in house; host or cells: E. coli (PTP1B co-expressed)
T2 sequence (P11362 458-765 C488A/C584S): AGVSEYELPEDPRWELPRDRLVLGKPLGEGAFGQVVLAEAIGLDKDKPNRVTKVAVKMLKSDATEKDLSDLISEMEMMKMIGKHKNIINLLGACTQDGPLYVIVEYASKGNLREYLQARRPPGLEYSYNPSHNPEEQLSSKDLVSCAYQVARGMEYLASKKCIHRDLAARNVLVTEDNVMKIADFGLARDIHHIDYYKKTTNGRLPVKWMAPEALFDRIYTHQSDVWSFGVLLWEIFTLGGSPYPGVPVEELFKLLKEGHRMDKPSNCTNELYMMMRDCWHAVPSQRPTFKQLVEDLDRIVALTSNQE
The assay is described as follows: AlphaScreen kinase assay, FGFR1. To be noted: read-out: IC50, activity toward kinase FGFR.

The target of a further assay is T3, Kit (Homo sapiens, UniProt P10721).
T3 construct: P1332.N6 BI PTP KIT M552-K948-X COD; His6 (N); made in house; host or cells: E. coli (PTP1B co-expressed)
T3 sequence (P10721 with tags, fused parts or gaps): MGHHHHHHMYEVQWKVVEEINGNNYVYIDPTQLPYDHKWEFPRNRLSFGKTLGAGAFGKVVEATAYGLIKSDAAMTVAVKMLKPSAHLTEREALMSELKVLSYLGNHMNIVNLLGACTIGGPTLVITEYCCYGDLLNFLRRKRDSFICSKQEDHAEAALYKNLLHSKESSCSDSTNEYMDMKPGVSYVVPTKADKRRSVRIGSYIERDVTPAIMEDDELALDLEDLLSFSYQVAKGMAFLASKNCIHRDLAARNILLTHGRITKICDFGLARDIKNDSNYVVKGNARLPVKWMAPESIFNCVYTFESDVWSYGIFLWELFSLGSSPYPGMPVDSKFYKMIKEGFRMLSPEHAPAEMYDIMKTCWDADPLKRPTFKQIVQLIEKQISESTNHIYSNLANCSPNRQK
The assay is described as follows: AlphaScreen kinase assay, Kit. To be noted: read-out: IC50, activity toward kinase Kit.

In another assay the target is T4, B-Raf V600E (Homo sapiens, UniProt P15056, V600E).
T4 construct: P4254. pFastBacBD-CDC37 BRAF D437-K722-X, V600E; His6 with pFastBac HT leader (TEV site) (N); made in house; host or cells: Sf9 (baculovirus; chaperone CDC37 co-expressed)
T4 sequence (P15056 with tags, fused parts or gaps V600E): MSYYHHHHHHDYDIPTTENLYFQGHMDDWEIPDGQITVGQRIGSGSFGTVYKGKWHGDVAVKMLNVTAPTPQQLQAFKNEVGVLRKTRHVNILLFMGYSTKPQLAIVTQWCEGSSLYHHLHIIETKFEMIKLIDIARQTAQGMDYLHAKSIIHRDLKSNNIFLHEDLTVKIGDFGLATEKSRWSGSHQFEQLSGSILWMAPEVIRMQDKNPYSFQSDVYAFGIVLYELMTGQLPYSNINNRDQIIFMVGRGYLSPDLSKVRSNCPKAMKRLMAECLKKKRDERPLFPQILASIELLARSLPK
The assay is described as follows: AlphaScreen kinase assay, B-Raf V600E. To be noted: read-out: IC50, activity toward kinase B-Raf V600E.

T1 sequence (P07333 20-972): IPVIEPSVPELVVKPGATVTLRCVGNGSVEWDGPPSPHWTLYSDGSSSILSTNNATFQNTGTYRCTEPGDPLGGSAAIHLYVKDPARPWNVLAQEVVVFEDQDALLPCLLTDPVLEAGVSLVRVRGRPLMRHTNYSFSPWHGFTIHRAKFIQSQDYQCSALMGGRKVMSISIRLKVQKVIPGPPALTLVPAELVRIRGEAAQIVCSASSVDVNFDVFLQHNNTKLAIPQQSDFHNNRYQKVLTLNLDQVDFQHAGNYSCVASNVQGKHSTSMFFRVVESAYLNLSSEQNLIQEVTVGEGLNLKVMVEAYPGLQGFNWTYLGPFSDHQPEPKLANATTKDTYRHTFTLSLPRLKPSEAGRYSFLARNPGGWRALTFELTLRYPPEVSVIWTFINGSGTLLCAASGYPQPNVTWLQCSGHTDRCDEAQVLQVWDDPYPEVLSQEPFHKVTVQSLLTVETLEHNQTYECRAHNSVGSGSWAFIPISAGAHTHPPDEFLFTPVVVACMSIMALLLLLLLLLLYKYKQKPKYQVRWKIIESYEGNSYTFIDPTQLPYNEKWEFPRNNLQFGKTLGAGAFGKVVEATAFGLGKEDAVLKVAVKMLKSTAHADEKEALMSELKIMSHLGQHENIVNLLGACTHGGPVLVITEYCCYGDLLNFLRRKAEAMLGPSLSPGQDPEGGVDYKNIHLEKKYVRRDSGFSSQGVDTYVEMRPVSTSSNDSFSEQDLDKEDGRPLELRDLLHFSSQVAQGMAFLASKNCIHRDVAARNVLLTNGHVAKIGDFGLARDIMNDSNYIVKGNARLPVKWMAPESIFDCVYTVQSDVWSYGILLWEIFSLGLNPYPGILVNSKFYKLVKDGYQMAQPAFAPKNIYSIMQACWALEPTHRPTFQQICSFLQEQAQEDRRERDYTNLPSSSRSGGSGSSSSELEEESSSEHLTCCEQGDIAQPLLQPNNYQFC
Description for Kit: AlphaScreen assay was used to screen additional kinases. The assay is similarly dependent on the phosphorylation of a peptide substrate. In this assay, an antibody that recognizes phosphorylated substrate is bound to an acceptor bead. The peptide substrate is attached to biotin, which binds to a donor head that contains streptavidin. Thus phosphorylated substrate is bound by antibody and streptavidin, bringing the donor and acceptor heads into close proximity when kinase is not inhibited. The donor produces singlet oxygen which results in emission from the acceptor when they are in close proximity. Conversely, when kinase is inhibited, the donor and acceptor beads are not associated and the emission from the acceptor is reduced.
AlphaScreen assays were done using compounds dissolved in DMSO to a concentration of 20 mM. The compounds were diluted accordingly to the desired final concentrations in each sample well, using 1:3 serial dilution for a total of 8 concentration points. Plates were prepared such that each kinase reaction is 20 μl in 1× kinase buffer, 5% DMSO and 10 μM ATP. After incubation of the kinase reaction for 1 hour at room temperature, 5 μl of donor beads in stop buffer (50 mM EDTA in 1× kinase buffer) was added, the sample was mixed and incubated for 20 minutes at room temperature before adding 5 μl of acceptor beads in stop buffer. The samples were incubated for 60 minutes at room temperature and the signal per well was read on AlphaQuest reader.

For the compound `COc1cccc(Cc2c[nH]c3ncccc23)c1` [Compound P-0239], at Fms, the IC50 – broadly, the concentration needed to halve the response being measured – is at most 10 µM.
Same read-out and setting: in the case of `OC(c1ccc(NCc2ccc(C(F)(F)F)cc2)nc1)c1c[nH]c2ncccc12` (stereo not drawn) [Compound P-0291] it was at most 10 µM.
Turning to `Cc1ccc(Cc2c[nH]c3ncccc23)cc1` [Compound P-0346], the IC50 at FGFR1 and at Kit was at most 10 µM in each case.
For `c1ccc(Nc2cnc3[nH]ccc3c2)cc1` [Compound P-0384], at Kit, the IC50 is at most 10 µM.
As to `OCCOc1cccc(Cc2c[nH]c3ncccc23)c1` [Compound P-0411], the IC50 at FGFR1 and on Kit was at most 10 µM throughout.
As to `Clc1ccc(Cc2c[nH]c3nccc(Br)c23)cn1` [Compound P-0447], the IC50 on FGFR1, at Kit and at B-Raf V600E was at most 10 µM throughout.
As to `COc1cccc(CCc2c[nH]c3ncccc23)c1` [Compound P-0450], the IC50 on Kit is at most 10 µM.
Regarding `CCOc1cccc(Cc2c[nH]c3ncccc23)c1` [Compound P-0459], the IC50 at FGFR1 and at Kit was at most 10 µM each time.
As for `c1ccc(CNc2ccc(Cc3c[nH]c4ncccc34)cc2)cc1` [Compound P-0493], the IC50 on FGFR1 and at B-Raf V600E was at most 10 µM in each case.
As for `O=C(c1ccc(Cl)nc1)c1c[nH]c2ncc(Br)cc12` [Compound P-0499], the IC50 on Kit was at most 10 µM.
On the same count and under the same terms, in the case of `COc1cccc(CCc2c[nH]c3ncc(-c4ccsc4)cc23)c1` [Compound P-0519] it was at most 10 µM.
The same measure, in the same setting: the value for `OCc1cccc(-c2c(CNCC(O)c3ccc(O)cc3)[nH]c3ncccc23)c1` (stereo not drawn) [Compound P-0554] was at most 10 µM; that for `c1ccc(Sc2c[nH]c3ncccc23)cc1` [Compound P-0626] was at most 10 µM.
As for `COc1cccc(Cc2c[nH]c3ncc(-c4ccc(Cl)s4)cc23)c1` [Compound P-0658], the IC50 on FGFR1 and on Kit was at most 10 µM in each case.
Turning to `Clc1ccc(-c2cnc3[nH]ccc3c2)cc1` [Compound P-0815], the half-maximal inhibitory concentration (IC50) at Kit is at most 10 µM.
On to `CC(C)(C)Oc1ccc(Cc2c[nH]c3ncccc23)cn1` [Compound P-0819], for which the IC50 at FGFR1 and at B-Raf V600E was at most 10 µM each time.
With `O=C(c1ccc2nsnc2c1)c1c[nH]c2ncc(-c3cccnc3)cc12` [Compound P-0905], the IC50 on Kit and at B-Raf V600E was at most 10 µM in each case.
Regarding `CN(C)c1ccc(Cc2c[nH]c3ncccc23)cn1` [Compound P-0935], the IC50 at FGFR1 and at Kit was at most 10 µM in each case.
In the case of `O=C(c1c(F)ccc(N(Cc2ccccc2)Cc2ccccc2)c1F)c1c[nH]c2ncc(-c3cccnc3)cc12` [Compound P-1074], the half-inhibitory concentration (IC50) on FGFR1 and at B-Raf V600E was at most 10 µM in each case.
On to `COc1cccc(Cc2c[nH]c3ncc(-c4ccccc4)cc23)c1` [Compound P-1084], for which the IC50 on Kit was at most 10 µM.
Same read-out and setting: the value for `O=[N+]([O-])c1c[nH]c2nccc(Cl)c12` [Compound P-1096] was at most 10 µM.
As for `COc1cccc(C(=O)c2c[nH]c3ncc(Nc4ccccc4)cc23)c1` [Compound P-1120], the IC50 at FGFR1 and at B-Raf V600E was at most 10 µM throughout.
`FC(F)(F)Oc1cccc(Cc2c[nH]c3nccc(Br)c23)c1` [Compound P-1123]: the IC50 at FGFR1 and at B-Raf V600E was at most 10 µM in each case.
Regarding `COc1nc(NCc2ccc(C(F)(F)F)cc2)ccc1Cc1c[nH]c2ncccc12` [Compound P-1124], on Fms, the IC50 was at most 10 µM.
Turning to `CCCS(=O)(=O)Nc1ccc(F)c(C(OC)c2c[nH]c3ncc(Br)cc23)c1F` (stereo not drawn) [Compound P-1275], the IC50 at Kit was at most 10 µM.
On the same count and under the same terms, in the case of `COc1ccc(C(=O)c2c[nH]c3ncc(Br)cc23)c(F)c1` [Compound P-1320] it was at most 10 µM.
As to `COc1cccc(Cc2c[nH]c3ncc(-c4ccc(C(F)(F)F)cc4)cc23)c1F` [Compound P-1324, 3-(2-Fluoro-3-methoxy-benzyl)-5-(4-trifluoromethyl-phenyl)-1H-pyrrolo[2,3-b]pyridine], on Fms, the half-maximal inhibitory concentration (IC50) was at most 10 µM.
Consider `O=C(c1ccccc1OCc1ccccc1)c1c[nH]c2ncc(Br)cc12` [Compound P-1382], for which the IC50 at FGFR1 and on Kit was at most 10 µM each time.
Regarding `O=C(c1cccc(C(F)(F)F)c1)c1c[nH]c2ncc(-c3ccccc3)cc12` [Compound P-1405, (5-Phenyl-1H-pyrrolo[2,3-b]pyridin-3-yl)-(3-trifluoromethyl-phenyl)-methanone], the IC50 at Fms was at most 10 µM.
Turning to `O=C(c1cc(F)cc(C(F)(F)F)c1)c1c[nH]c2ncc(-c3ccccc3)cc12` [Compound P-1407, (3-Fluoro-5-trifluoromethyl-phenyl)-(5-phenyl-1H-pyrrolo[2,3-b]pyridin-3-yl)-methanone], the IC50 on FGFR1 and on Kit was at most 10 µM each time.
Turning to `O=C(c1cccc(OC(F)(F)F)c1)c1c[nH]c2ncc(-c3ccccc3)cc12` [Compound P-1408, (5-Phenyl-1H-pyrrolo[2,3-b]pyridin-3-yl)-(3-trifluoromethoxy-phenyl)-methanone], the IC50 at Kit is at most 10 µM.
On to `CC(=O)Nc1cccc(-c2cnc3[nH]cc(C(=O)c4cc(F)cc(C(F)(F)F)c4)c3c2)c1` [Compound P-1421, N-{3-[3-(3-Fluoro-5-trifluoromethyl-benzoyl)-1H-pyrrolo[2,3-b]pyridin-5-yl]-phenyl}-acetamide], for which the IC50 on Fms is at most 10 µM.
On the same count and under the same terms, the value for `CN(c1ccc(Cl)c(Cl)c1)c1c[nH]c2ncccc12` [Compound P-1494, (3,4-Dichloro-phenyl)-methyl-(1H-pyrrolo[2,3-b]pyridin-3-yl)-amine] was at most 10 µM.
Same read-out and setting: in the case of `Cn1cnnc1-c1cccc(Nc2c[nH]c3ncccc23)c1` [Compound P-1504, [3-(4-Methyl-4H-[1,2,4]triazol-3-yl)-phenyl]-(1H-pyrrolo[2,3-b]pyridin-3-yl)-amine] it was at most 10 µM; in that of `OC(c1cccc(OC(F)F)c1)c1c[nH]c2ncc(Br)cc12` (stereo not drawn) [Compound P-1511], at most 10 µM.
Consider `O=C(c1cccc(OC(F)F)c1)c1c[nH]c2ncc(Br)cc12` [Compound P-1514, (5-Bromo-1H-pyrrolo[2,3-b]pyridin-3-yl)-(3-difluoromethoxy-phenyl)-methanone], for which the IC50 on Kit is at most 10 µM.
On to `CS(=O)(=O)Nc1cccc(-c2cnc3[nH]cc(C(=O)c4cccc5c4OC(F)(F)O5)c3c2)c1` [Compound P-1516, N-{3-[3-(2,2-Difluoro-benzo[1,3]dioxole-4-carbonyl)-1H-pyrrolo[2,3-b]pyridin-5-yl]-phenyl}-methanesulfonamide], for which the IC50 on FGFR1 and on B-Raf V600E was at most 10 µM in each case.
With `O=C(c1cc(OC(F)F)cc(OC(F)F)c1)c1c[nH]c2ncc(-c3ccccc3)cc12` [Compound P-1521, (3,5-Bis-difluoromethoxy-phenyl)-(5-phenyl-1H-pyrrolo[2,3-b]pyridin-3-yl)-methanone], the IC50 on Kit was at most 10 µM.
For the compound `FC(F)Oc1cc(Cc2c[nH]c3ncc(Br)cc23)cc(OC(F)F)c1` [Compound P-1538, 3-(3,5-Bis-difluoromethoxy-benzyl)-5-bromo-1H-pyrrolo[2,3-b]pyridine], the IC50 at FGFR1 and on Kit was at most 10 µM each time.
For the compound `COC(=O)c1cnc2[nH]ccc2c1` [Compound P-1543], the IC50 on Kit was at most 10 µM.
As for `OC(c1ccc2c(c1)OC(F)(F)O2)c1c[nH]c2ncc(Br)cc12` (stereo not drawn) [Compound P-1550], the IC50 on FGFR1, at Kit and at B-Raf V600E was at most 10 µM throughout.
For `O=C(c1ccc2c(c1)OC(F)(F)O2)c1c[nH]c2ncc(Br)cc12` [Compound P-1551, (5-Bromo-1H-pyrrolo[2,3-b]pyridin-3-yl)-(2,2-difluoro-benzo[1,3]dioxol-5-yl)-methanone], at Kit, the IC50 is at most 10 µM.
For the compound `O=[N+]([O-])c1ccc(Sc2c[nH]c3ncc(Cl)cc23)nc1` [Compound P-1562], on Kit, the IC50 was at most 10 µM.
The same measure, in the same setting: the value for `O=C(c1ccc(Cl)cc1Cl)c1c[nH]c2ncc(Br)cc12` [Compound P-1565] was at most 10 µM.
Same read-out and setting: in the case of `COc1ccc(Sc2c[nH]c3ncc(Cl)cc23)nc1` [Compound P-1574] it was at most 10 µM.
For `COCCOc1ccc(F)c(C(=O)c2c[nH]c3ncc(OC)cc23)c1F` [Compound P-1584, [2,6-Difluoro-3-(2-methoxy-ethoxy)-phenyl]-(5-methoxy-1H-pyrrolo[2,3-b]pyridin-3-yl)-methanone], the IC50 on FGFR1 was at most 10 µM.
As to `COc1cnc2[nH]cc(C(=O)c3c(F)ccc(OCc4ccccc4)c3F)c2c1` [Compound P-1597, (3-Benzyloxy-2,6-difluoro-phenyl)-(5-methoxy-1H-pyrrolo[2,3-b]pyridin-3-yl)-methanone], on FGFR1, the IC50 is at most 10 µM.
Regarding `O=C(NCC1CC1)Nc1ccc(F)c(Cc2c[nH]c3ncc(Cl)cc23)c1F` [Compound P-1652, 1-[3-(5-Chloro-1H-pyrrolo[2,3-b]pyridin-3-ylmethyl)-2,4-difluoro-phenyl]-3-cyclopropylmethyl-urea], the IC50 on Fms is at most 10 µM.
With `COC(c1c(F)ccc(NC(=O)Nc2ccc(F)cc2)c1F)c1c[nH]c2ncc(Cl)cc12` (stereo not drawn) [Compound P-1653], the half-inhibitory concentration (IC50) at Fms was at most 10 µM.
In the case of `O=C(NCc1ccc(F)cc1)Nc1ccc(F)c(Cc2c[nH]c3ncc(Cl)cc23)c1F` [Compound P-1654, 1-[3-(5-Chloro-1H-pyrrolo[2,3-b]pyridin-3-ylmethyl)-2,4-difluoro-phenyl]-3-(4-fluoro-benzyl)-urea], at Fms, the IC50 is at most 10 µM.
